Data on 17 compounds can be found in patent US11136311B2, “Heteroaromatic derivatives as NIK inhibitors” (Janssen Pharmaceutica NV, priority 2016, dated 2021).

The target of assay [1] is recombinant human NF-kappaB-inducing kinase (NIK/MAP3K14) (Homo sapiens (Human), UniProt Q99558). The experiment in a line: Inhibition of auto-phosphorylation of recombinant human NIK/MAP3K14 activity (AlphaScreen). The assay is classed as biochemical. Conditions: averaged values over all measurements on all batches. How it is done:
Inhibition of auto-phosphorylation of recombinant human NF-kappaB-inducing kinase (NIK/MAP3K14) activity (AlphaScreen®)
NIK/MAP3K14 auto-phosphorylation activity was measured using the AlphaScreen® (αscreen) format (Perkin Elmer). All compounds tested were dissolved in dimethyl sulfoxide (DMSO) and further dilutions were made in assay buffer. Final DMSO concentration was 1% (v/v) in assays. Assay buffer was 50 mM Tris pH 7.5 containing 1 mM EGTA (ethylene glycol tetraacetic acid), 1 mM DTT (dithiothreitol), 0.1 mM Na3VO4, 5 mM MgCl2, 0.01% Tween® 20. Assays were carried out in 384 well Alphaplates (Perkin Elmer). Incubations consisted of compound, 25 microM Adenosine-5′-triphosphate (ATP), and 0.2 nM NIK/MAP3K14. Incubations were initiated by addition of GST-tagged NIK/MAP3K14 enzyme, carried out for 1 h at 25° C. and terminated by addition of stop buffer containing anti-phospho-IKK Ser176/180 antibody. Protein A Acceptor and Glutathione-Donor beads were added before reading using an EnVision® Multilabel Plate Reader (Perkin Elmer). Signal obtained in the wells containing blank samples was subtracted from all other wells and IC50's were determined by fitting a sigmoidal curve to % inhibition of control versus Log10 compound concentration.
(In Alpha technology, singlet oxygen from a donor bead excites a nearby acceptor bead.)

The next assay has as its system KMS12-BM cells. The experiment in a line: Antiproliferative activity on KMS12-BM (NIK WT) multiple myeloma cells (CellTiter-Glo). Particulars: Homo sapiens, KMS-12-BM, 96 h, KMS12-BM (NIK WT) cells, 96 hr; averaged values; read-out: KMS-12 Proliferation inhibition (IC50 (nM)). The assay is classed as cell-based, human. As for the experimental part:
(§1) Determination of antiproliferative activity on JJN-3 (NIK translocated) and KMS12-BM (NIK WT) multiple myeloma cells
(§2) All compounds tested were dissolved in DMSO and further dilutions were made in culture medium. Final DMSO concentration was 0.3% (v/v) in cell proliferation assays. Viability was assessed using CellTiter-Glo cell viability assay kit (Promega). The human JJN-3 and KMS12-BM cells (DSMZ) were cultured in RPMI 1640 medium supplemented with 2 mM L-glutamine, and 10% fetal calf serum (PAA). Cells were routinely kept as suspension cells at 37° C. in a humidified 5% CO2 atmosphere. Cells were passaged at a seeding density of 0.2×10^6/ml twice a week. Cells were seeded in black tissue culture treated 96-well plates (Perkin Elmer). Densities used for plating ranged from 15000 (JJN3) to 20000 (KMS12BM) cells per well in a total volume of 135 μl medium. Drugs and/or solvents were added (15 μl) to a final volume of 150 μl. Following 96 hr of treatment, plates were removed from the incubator and allowed to equilibrate to room temperature for approx 10 min. 75 μl CellTiter-Glo reagent was added to each well that was then covered (Perkin Elmer Topseal) and shaken on plate shaker for 10 min. Luminescence was measured on a HTS Topcount (Perkin Elmer). Within an experiment, the results for each treatment were the mean of 2 replicate wells. For initial screening purposes, compounds were tested using a 9 point dilution curve (serial 1:3 dilutions). For each experiment, controls (containing no drug) and a blank incubation (containing cells read at the time of compound addition) were run in parallel. The blank value was subtracted from all control and sample values. For each sample, the mean value for cell growth (in relative light units) was expressed as a percentage of the mean value for cell growth of the control.
(In general: Cellular ATP, detected with luciferase, serves as a proxy for viable cell number.)

The test system of another assay is JJN-3 cells. The experiment in a line: Antiproliferative activity on JJN-3 (NIK translocated) multiple myeloma cells (CellTiter-Glo). The class given is cell-based, human. Particulars: Homo sapiens, JJN-3, 96 h, JJN-3 (NIK translocated) cells, 96 hr; averaged values; read-out: JJN-3 Proliferation inhibition (IC50 (nM)). How it is done:
as §1, §2

Sequence of recombinant human NF-kappaB-inducing kinase (NIK/MAP3K14) (Q99558 whole entry): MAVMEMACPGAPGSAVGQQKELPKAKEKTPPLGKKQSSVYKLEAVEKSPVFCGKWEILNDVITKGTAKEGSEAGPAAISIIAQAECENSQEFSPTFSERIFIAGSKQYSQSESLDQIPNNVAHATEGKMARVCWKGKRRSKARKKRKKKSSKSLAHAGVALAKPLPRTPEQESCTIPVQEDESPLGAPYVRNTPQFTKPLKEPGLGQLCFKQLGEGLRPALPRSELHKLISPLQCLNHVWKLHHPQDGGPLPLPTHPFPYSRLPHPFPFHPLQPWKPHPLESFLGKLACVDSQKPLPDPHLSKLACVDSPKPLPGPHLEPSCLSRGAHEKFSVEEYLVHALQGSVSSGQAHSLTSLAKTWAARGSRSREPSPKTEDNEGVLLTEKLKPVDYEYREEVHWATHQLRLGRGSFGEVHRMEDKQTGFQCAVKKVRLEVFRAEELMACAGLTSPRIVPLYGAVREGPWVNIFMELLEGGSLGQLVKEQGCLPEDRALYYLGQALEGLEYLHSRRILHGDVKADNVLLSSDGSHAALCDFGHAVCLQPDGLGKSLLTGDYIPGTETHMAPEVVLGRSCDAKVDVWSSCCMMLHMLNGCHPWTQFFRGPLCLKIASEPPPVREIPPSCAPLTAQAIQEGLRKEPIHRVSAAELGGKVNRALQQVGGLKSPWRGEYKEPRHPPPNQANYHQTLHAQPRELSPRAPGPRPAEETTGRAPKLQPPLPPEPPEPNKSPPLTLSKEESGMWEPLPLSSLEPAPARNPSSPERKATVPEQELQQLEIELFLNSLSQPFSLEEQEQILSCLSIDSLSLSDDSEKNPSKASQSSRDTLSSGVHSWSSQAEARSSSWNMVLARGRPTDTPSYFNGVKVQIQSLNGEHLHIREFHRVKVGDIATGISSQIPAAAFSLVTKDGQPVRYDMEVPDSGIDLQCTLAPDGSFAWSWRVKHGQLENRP

As to `COCCn1nc(C)cc1Nc1nccc(-c2cc(C#N)c3c(c2)C(C)(CO)CN3)n1` (stereo not drawn) [Compound 14], the IC50 was 7.1 nM in assay [1], around 7240 nM in the assay with KMS12-BM cells and 234 nM with JJN-3 cells.

Turning to `COCCn1ccc(Nc2nccc(-c3cc(C#N)c4c(c3)C(C)(CO)CN4)n2)n1` (stereo not drawn) [Compound 16], the IC50 came out at 2.8 nM in assay [1], 7080 nM in the assay with KMS12-BM cells and 525 nM in the assay with JJN-3 cells.

For `Cn1ccc(Nc2nccc(-c3cc(C#N)c4c(c3)[C@@](C)(CO)CN4)n2)n1` [Compound 19], the IC50 in assay [1] amounted to 2.2 nM; in the assay on KMS12-BM cells it was 2720 nM; in the assay on JJN-3 cells, 163 nM.

Regarding `CC(C)n1ccc(Nc2nccc(-c3cc(C#N)c4c(c3)C(C)(CO)CN4)n2)n1` (stereo not drawn) [Compound 20], the figures for the IC50 (in assay [1]; in the assay with KMS12-BM cells; in the assay with JJN-3 cells) were 3.4 nM, 2510 nM and 229 nM, respectively.

As for `CC1(CO)CNc2c(C#N)cc(-c3ccnc(Nc4cc[nH]n4)n3)cc21` (stereo not drawn) [Compound 21], the IC50 in assay [1] turned out to be 2.9 nM; in the assay with KMS12-BM cells, 1020 nM; in the assay on JJN-3 cells it was 813 nM.

Consider `Cn1nc(Nc2nccc(-c3cc(C#N)c4c(c3)C(C)(CO)CN4)n2)cc1C(=O)N1CCC(F)(F)CC1` (stereo not drawn) [Compound 22], for which the IC50 was 18 nM in assay [1], above 10000 nM in the assay with KMS12-BM cells and 2340 nM with JJN-3 cells.

Turning to `COCCCn1ccc(Nc2nccc(-c3cc(C#N)c4c(c3)C(C)(CO)CN4)n2)n1` (stereo not drawn) [Compound 23], the IC50 came to 4.9 nM in assay [1], 3890 nM in the assay on KMS12-BM cells and 295 nM with JJN-3 cells.

`CC(C)n1nccc1Nc1nccc(-c2cc(C#N)c3c(c2)C(C)(CO)CN3)n1` (stereo not drawn) [Compound 24]: the IC50 in assay [1] is 10 nM; in the assay on KMS12-BM cells it was above 10000 nM; in the assay with JJN-3 cells, 646 nM.

Turning to `Cn1nc(C(=O)NC2CCOCC2)cc1Nc1nccc(-c2cc(C#N)c3c(c2)C(C)(CO)CN3)n1` (stereo not drawn) [Compound 25], the IC50 was 8.1 nM in assay [1], 1510 nM in the assay with KMS12-BM cells and 1900 nM with JJN-3 cells.

With `Cn1nc(Nc2nccc(-c3cc(C#N)c4c(c3)C(C)(CO)CN4)n2)cc1C1(C)COC1` (stereo not drawn) [Compound 26], the IC50 in assay [1] is 10 nM; with KMS12-BM cells it was around 2950 nM; in the assay on JJN-3 cells it was 457 nM.

For `COCCCn1nccc1Nc1nccc(-c2cc(C#N)c3c(c2)C(C)(CO)CN3)n1` (stereo not drawn) [Compound 27], the figures for the IC50 (in assay [1]; with KMS12-BM cells; with JJN-3 cells) were 13 nM, around 4570 nM and 389 nM, respectively.

Take `Cn1nc(C(=O)N2CCC(F)(F)CC2)cc1Nc1nccc(-c2cc(C#N)c3c(c2)C(C)(CO)CN3)n1` (stereo not drawn) [Compound 28]: the IC50 in assay [1] is around 17 nM; in the assay with KMS12-BM cells, above 10000 nM; with JJN-3 cells, 2570 nM.

Take `Cn1nc(Nc2nccc(-c3cc(C#N)c4c(c3)C(C)(CO)CN4)n2)cc1C1CC1` (stereo not drawn) [Compound 29]: the IC50 is 4.4 nM in assay [1], 1440 nM in the assay with KMS12-BM cells and around 603 nM in the assay on JJN-3 cells.

Regarding `CC1(CO)CNc2c(C#N)cc(-c3ccnc(Nc4cnn(CC(F)F)c4)n3)cc21` (stereo not drawn) [Compound 30], the IC50 in assay [1] was 3.2 nM; in the assay with KMS12-BM cells, around 170 nM; in the assay with JJN-3 cells, 47 nM.

For the compound `CC(C)n1ccc(Nc2nccc(-c3cc(C#N)c4c(c3)[C@](C)(CO)CN4)n2)n1` [Compound 31], the IC50 was 14 nM in assay [1], above 10000 nM in the assay on KMS12-BM cells and 589 nM in the assay on JJN-3 cells.

On to `Cn1cc(Cl)c(Nc2nccc(-c3cc(C#N)c4c(c3)C(C)(CO)CN4)n2)n1` (stereo not drawn) [Compound 32], for which the IC50 was 27 nM in assay [1], above 10000 nM in the assay on KMS12-BM cells and 7760 nM in the assay on JJN-3 cells.

Consider `Cn1ccc(Nc2nccc(-c3cc(C#N)c4c(c3)[C@](C)(CO)CN4)n2)n1` [Compound 34], for which the IC50 in assay [1] was 10 nM; in the assay on KMS12-BM cells, around 10000 nM; in the assay on JJN-3 cells it was 1180 nM.
